{
  "source": "patent US8569298B2",
  "about": "“Pyridine compounds” (Astrazeneca AB, priority 2008, dated 2013)",
  "data": [
    {"molecular_target": "T1, FAK enzyme (6 His tagged kinase domain, GenBank NP—722560) (Homo sapiens, UniProt Q05397)", "T1 construct": "6 His; made in house; host or cells: insect cell culture infected with baculovirus", "T1 sequence (Q05397 422-680 limits assumed)": "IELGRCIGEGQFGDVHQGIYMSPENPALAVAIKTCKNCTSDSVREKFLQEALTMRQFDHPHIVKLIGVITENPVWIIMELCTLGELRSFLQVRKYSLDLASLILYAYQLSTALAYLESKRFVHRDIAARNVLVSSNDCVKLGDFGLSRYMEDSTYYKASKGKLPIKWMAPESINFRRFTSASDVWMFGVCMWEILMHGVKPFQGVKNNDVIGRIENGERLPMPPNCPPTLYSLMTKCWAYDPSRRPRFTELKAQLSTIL", "experiment": "In vitro enzyme assay (a): sandwich ELISA of FAK tyrosine kinase activity on polyGAT peptide, TMB colorimetric endpoint", "format": "biochemical", "settings": "in vitro Enzyme Assay test (a); ATP at Km; geometric mean of n > 1 measurements, values marked * tested once", "how_it_was_run": "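Recombinant His-tagged FAK kinase domain (baculovirus/insect cells) phosphorylated plate-coated polyGAT with ATP at Km, MgCl2/MnCl2, HEPES pH 7.4, 25 min at room temperature before EDTA stop. Phosphotyrosine detected by HRP-4G10 antibody and TMB absorbance at 450 nm; IC50 from 12-point curve anchored to DMSO and staurosporine controls.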", "units": {"IC50": "nM"}, "values": [
      {"smiles": "CNC(=O)c1ccccc1Nc1cc(Nc2cnn(CC(C)C)c2)ncc1C(F)(F)F", "note": "[Example 8.09, 2-[[2-[(1-isobutylpyrazol-4-yl)amino]-5-(trifluoromethyl)-4-pyridyl]amino]-N-methyl-benzamide]", "IC50": 69},
      {"smiles": "CNC(=O)c1ccccc1Nc1cc(Nc2c(C)nn(C)c2C)ncc1C(F)(F)F", "note": "[Example 8.10, N-methyl-2-[[5-(trifluoromethyl)-2-[(1,3,5-trimethylpyrazol-4-yl)amino]-4-pyridyl]amino]benzamide]", "IC50": 13},
      {"smiles": "CNC(=O)c1ccccc1Nc1cc(Nc2cnn(C(C)C)c2)ncc1C(F)(F)F", "note": "[Example 8.11, 2-[[2-[(1-isopropylpyrazol-4-yl)amino]-5-(trifluoromethyl)-4-pyridyl]amino]-N-methyl-benzamide]", "IC50": 34},
      {"smiles": "CNC(=O)c1ccccc1Nc1cc(Nc2cn(C)nc2C(F)(F)F)ncc1C(F)(F)F", "note": "[Example 8.12, N-methyl-2-[[2-[[1-methyl-3-(trifluoromethyl)pyrazol-4-yl]amino]-5-(trifluoromethyl)-4-pyridyl]amino]benzamide]", "IC50": 18},
      {"smiles": "CNC(=O)c1cc(OC)ccc1Nc1cc(Nc2cn(C)nc2C)ncc1C(F)(F)F", "note": "[Example 10.01, 2-[[2-[(1,3-dimethylpyrazol-4-yl)amino]-5-(trifluoromethyl)-4-pyridyl]amino]-5-methoxy-N-methyl-benzamide]", "IC50": 8},
      {"smiles": "CNC(=O)c1ccc(C)cc1Nc1cc(Nc2cn(C)nc2C)ncc1C(F)(F)F", "note": "[Example 10.02, 2-[[2-[(1,3-Dimethylpyrazol-4-yl)amino]-5-(trifluoromethyl)-4-pyridyl]amino]-N,4-dimethyl-benzamide]", "IC50": 13},
      {"smiles": "CNC(=O)c1cc(C)ccc1Nc1cc(Nc2cn(C)nc2C)ncc1C(F)(F)F", "note": "[Example 10.03, 2-[[2-[(1,3-dimethylpyrazol-4-yl)amino]-5-(trifluoromethyl)-4-pyridyl]amino]-N,5-dimethyl-benzamide]", "IC50": 2},
      {"smiles": "CNC(=O)c1ccc(OC)cc1Nc1cc(Nc2cn(C)nc2C)ncc1C(F)(F)F", "note": "[Example 10.04, 2-[[2-[(1,3-dimethylpyrazol-4-yl)amino]-5-(trifluoromethyl)-4-pyridyl]amino]-4-methoxy-N-methyl-benzamide]", "IC50": 53},
      {"smiles": "CNC(=O)c1ccc(F)cc1Nc1cc(Nc2cn(C)nc2C)ncc1C(F)(F)F", "note": "[Example 10.05, 2-[[2-[(1,3-dimethylpyrazol-4-yl)amino]-5-(trifluoromethyl)-4-pyridyl]amino]-4-fluoro-N-methyl-benzamide]", "IC50": 9},
      {"smiles": "CNC(=O)c1cccc(F)c1Nc1cc(Nc2cn(C)nc2C)ncc1C(F)(F)F", "note": "[Example 10.06, 2-[[2-[(1,3-dimethylpyrazol-4-yl)amino]-5-(trifluoromethyl)-4-pyridyl]amino]-3-fluoro-N-methyl-benzamide]", "IC50": 10},
      {"smiles": "CNC(=O)c1cc(Cl)ccc1Nc1cc(Nc2cn(C)nc2C)ncc1C(F)(F)F", "note": "[Example 10.07, 5-chloro-2-[[2-[(1,3-dimethylpyrazol-4-yl)amino]-5-(trifluoromethyl)-4-pyridyl]amino]-N-methyl-benzamide]", "IC50": 14},
      {"smiles": "CONC(=O)c1ccccc1Nc1cc(Nc2cn(C)nc2C)ncc1C(F)(F)F", "note": "[Example 10.08, 2-[[2-[(1,3-dimethylpyrazol-4-yl)amino]-5-(trifluoromethyl)-4-pyridyl]amino]-N-methoxy-benzamide]", "IC50": 5},
      {"smiles": "CNC(=O)c1ccc(Cl)cc1Nc1cc(Nc2cn(C)nc2C)ncc1C(F)(F)F", "note": "[Example 10.09, 4-chloro-2-[[2-[(1,3-dimethylpyrazol-4-yl)amino]-5-(trifluoromethyl)-4-pyridyl]amino]-N-methyl-benzamide]", "IC50": 7},
      {"smiles": "CNC(=O)c1cc(SC)ccc1Nc1cc(Nc2cn(C)nc2C)ncc1C(F)(F)F", "note": "[Example 10.10, 2-[[2-[(1,3-dimethylpyrazol-4-yl)amino]-5-(trifluoromethyl)-4-pyridyl]amino]-N-methyl-5-methylsulfanyl-benzamide]", "IC50": 11},
      {"smiles": "CNC(=O)c1cc(N2CCOCC2)ccc1Nc1cc(Nc2cn(C)nc2C)ncc1C(F)(F)F", "note": "[Example 10.11, 2-[[2-[(1,3-dimethylpyrazol-4-yl)amino]-5-(trifluoromethyl)-4-pyridyl]amino]-N-methyl-5-morpholino-benzamide]", "IC50": 26},
      {"smiles": "CNC(=O)c1ccc(S(C)(=O)=O)cc1Nc1cc(Nc2cn(C)nc2C)ncc1C(F)(F)F", "note": "[Example 10.13, 2-[[2-[(1,3-dimethylpyrazol-4-yl)amino]-5-(trifluoromethyl)-4-pyridyl]amino]-N-methyl-4-methylsulfonyl-benzamide]", "IC50": 462},
      {"smiles": "CNC(=O)c1c(Nc2cc(Nc3cc(C)nn3C)ncc2C(F)(F)F)cccc1OC", "note": "[Example 11.01, 2-[[2-[(2,5-dimethylpyrazol-3-yl)amino]-5-(trifluoromethyl)-4-pyridyl]amino]-6-methoxy-N-methyl-benzamide]", "IC50": 5},
      {"smiles": "CNC(=O)c1nn(C)cc1Nc1cc(Nc2cccc3c2C(=O)N(C)CC3)c(Cl)cn1", "note": "[Example 12.01, 4-[[5-chloro-4-[(2-methyl-1-oxo-3,4-dihydroisoquinolin-8-yl)amino]-2-pyridyl]amino]-N,1-dimethyl-pyrazole-3-carboxamide]", "IC50": 915},
      {"smiles": "CN(C)C(=O)c1nn(C)cc1Nc1cc(Nc2cccc3c2C(=O)N(C)CC3)c(Cl)cn1", "note": "[Example 12.02, 4-[[5-chloro-4-[(2-methyl-1-oxo-3,4-dihydroisoquinolin-8-yl)amino]-2-pyridyl]amino]-N,N,1-trimethyl-pyrazole-3-carboxamide]", "IC50": 1360},
      {"smiles": "Cc1n[nH]cc1Nc1cc(Nc2cccc3c2C(=O)N(C)CC3)c(Cl)cn1", "note": "[Example 12.03, 8-[[5-chloro-2-[(3-methyl-1H-pyrazol-4-yl)amino]-4-pyridyl]amino]-2-methyl-3,4-dihydroisoquinolin-1-one]", "IC50": 2},
      {"smiles": "COCc1nn(C)cc1Nc1cc(Nc2cccc3c2C(=O)N(C)CC3)c(Cl)cn1", "note": "[Example 12.04, 8-[[5-chloro-2-[[3-(methoxymethyl)-1-methyl-pyrazol-4-yl]amino]-4-pyridyl]amino]-2-methyl-3,4-dihydroisoquinolin-1-one]", "IC50": 22},
      {"smiles": "CN1CCc2cccc(Nc3cc(Nc4cn(C)nc4C#N)ncc3Cl)c2C1=O", "note": "[Example 12.05, 4-[[5-chloro-4-[(2-methyl-1-oxo-3,4-dihydroisoquinolin-8-yl)amino]-2-pyridyl]amino]-1-methyl-pyrazole-3-carbonitrile]", "IC50": 20},
      {"smiles": "COc1nn(C)cc1Nc1cc(Nc2cccc3c2C(=O)N(C)CC3)c(Cl)cn1", "note": "[Example 12.06, 8-[[5-chloro-2-[(3-methoxy-1-methyl-pyrazol-4-yl)amino]-4-pyridyl]amino]-2-methyl-3,4-dihydroisoquinolin-1-one]", "IC50": 8},
      {"smiles": "CNC(=O)c1ccccc1Nc1cc(Nc2cn(C)nc2C(=O)NC)ncc1C(F)(F)F", "note": "[Example 12.07, N,1-dimethyl-4-[[4-[[2-(methylcarbamoyl)phenyl]amino]-5-(trifluoromethyl)-2-pyridyl]amino]pyrazole-3-carboxamide]", "IC50": 171},
      {"smiles": "CNC(=O)c1ccccc1Nc1cc(Nc2cn(C)nc2C(=O)N(C)C)ncc1C(F)(F)F", "note": "[Example 12.08, N,N,1-trimethyl-4-[[4-[[2-(methylcarbamoyl)phenyl]amino]-5-(trifluoromethyl)-2-pyridyl]amino]pyrazole-3-carboxamide]", "IC50": 482},
      {"smiles": "CNC(=O)c1ccccc1Nc1cc(Nc2c[nH]nc2C)ncc1C(F)(F)F", "note": "[Example 12.09, N-methyl-2-[[2-[(3-methyl-1H-pyrazol-4-yl)amino]-5-(trifluoromethyl)-4-pyridyl]amino]benzamide]", "IC50": 3},
      {"smiles": "CNC(=O)c1ccccc1Nc1cc(Nc2cn(C)nc2COC)ncc1C(F)(F)F", "note": "[Example 12.10, 2-[[2-[[3-(methoxymethyl)-1-methyl-pyrazol-4-yl]amino]-5-(trifluoromethyl)-4-pyridyl]amino]-N-methyl-benzamide]", "IC50": 10},
      {"smiles": "CNC(=O)c1ccccc1Nc1cc(Nc2cn(C)nc2C#N)ncc1C(F)(F)F", "note": "[Example 12.11, 2-[[2-[(3-cyano-1-methyl-pyrazol-4-yl)amino]-5-(trifluoromethyl)-4-pyridyl]amino]-N-methyl-benzamide]", "IC50": 15},
      {"smiles": "CNC(=O)c1ccccc1Nc1cc(Nc2cn(C)nc2OC)ncc1C(F)(F)F", "note": "[Example 12.12, 2-[[2-[(3-methoxy-1-methyl-pyrazol-4-yl)amino]-5-(trifluoromethyl)-4-pyridyl]amino]-N-methyl-benzamide]", "IC50": 3},
      {"smiles": "Cc1nn(C(C)C)cc1Nc1cc(Nc2cccc3c2C(=O)N(C)CC3)c(Cl)cn1", "note": "[Example 13.01, 8-[[5-chloro-2-[(1-isopropyl-3-methyl-pyrazol-4-yl)amino]-4-pyridyl]amino]-2-methyl-3,4-dihydroisoquinolin-1-one]", "IC50": 13},
      {"smiles": "CNC(=O)c1ccccc1Nc1cc(Nc2cn(C(C)C)nc2C)ncc1C(F)(F)F", "note": "[Example 13.02, 2-[[2-[(1-isopropyl-3-methyl-pyrazol-4-yl)amino]-5-(trifluoromethyl)-4-pyridyl]amino]-N-methyl-benzamide]", "IC50": 21},
      {"smiles": "CNC(=O)c1ccccc1Nc1cc(Nc2cn(C(F)F)nc2C)ncc1C(F)(F)F", "note": "[Example 13.03, 2-[[2-[[1-(difluoromethyl)-3-methyl-pyrazol-4-yl]amino]-5-(trifluoromethyl)-4-pyridyl]amino]-N-methyl-benzamide]", "IC50": 50},
      {"smiles": "Cc1nn(C(F)F)cc1Nc1cc(Nc2cccc3c2C(=O)N(C)CC3)c(Cl)cn1", "note": "[Example 13.04, 8-[[5-chloro-2-[[1-(difluoromethyl)-3-methyl-pyrazol-4-yl]amino]-4-pyridyl]amino]-2-methyl-3,4-dihydroisoquinolin-1-one]", "IC50": 23},
      {"smiles": "Cc1nn(CCO)cc1Nc1cc(Nc2cccc3c2C(=O)N(C)CC3)c(Cl)cn1", "note": "[Example 13.05, 8-[[5-chloro-2-[[1-(2-hydroxyethyl)-3-methyl-pyrazol-4-yl]amino]-4-pyridyl]amino]-2-methyl-3,4-dihydroisoquinolin-1-one]", "IC50": 4}
    ]}
  ]
}
